Test results published in PubChem BioAssay (NCI).
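Growth conditions: 96-well plates. Treatment: test compound, 48 hours, 5 concentrations. Analysis: linear interpolation between bracketing concentrations; unreached endpoints set to highest concentration. GI50 is the concentration that inhibits growth by half. TGI: concentration producing complete growth inhibition.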

Legend:
Test in all cases: NCI anticancer screen, dose series, 48 h
786-0 renal = system: 786-0 renal
A498 renal = system: A498 renal
A549 NSCLC = system: A549 NSCLC
ACHN renal = system: ACHN renal
CAKI-1 renal = system: CAKI-1 renal
CCRF-CEM leukemia = system: CCRF-CEM leukemia
COLO 205 colon = system: COLO 205 colon
DU-145 prostate = system: DU-145 prostate
EKVX NSCLC = system: EKVX NSCLC
HCC-2998 colon = system: HCC-2998 colon
HCT-116 colon = system: HCT-116 colon
HCT-15 colon = system: HCT-15 colon
HL-60(TB) leukemia = system: HL-60(TB) leukemia
HOP-62 NSCLC = system: HOP-62 NSCLC
HOP-92 NSCLC = system: HOP-92 NSCLC
HS 578T breast = system: HS 578T breast
HT29 colon = system: HT29 colon
IGROV1 ovarian = system: IGROV1 ovarian
K-562 leukemia = system: K-562 leukemia
KM12 colon = system: KM12 colon
LOX IMVI melanoma = system: LOX IMVI melanoma
M14 melanoma = system: M14 melanoma
MALME-3M melanoma = system: MALME-3M melanoma
MCF7 breast = system: MCF7 breast
MDA-MB-231 breast = system: MDA-MB-231 breast
MDA-N = system: MDA-N
MOLT-4 leukemia = system: MOLT-4 leukemia
NCI-H226 lung = system: NCI-H226 lung
NCI-H23 lung = system: NCI-H23 lung
NCI-H460 lung = system: NCI-H460 lung
NCI-H522 lung = system: NCI-H522 lung
NCI/ADR-RES ovarian = system: NCI/ADR-RES ovarian
OVCAR-3 ovarian = system: OVCAR-3 ovarian
OVCAR-4 ovarian = system: OVCAR-4 ovarian
OVCAR-5 ovarian = system: OVCAR-5 ovarian
OVCAR-8 ovarian = system: OVCAR-8 ovarian
PC-3 prostate = system: PC-3 prostate
RPMI-8226 leukemia = system: RPMI-8226 leukemia
RXF 393 renal = system: RXF 393 renal
SF-268 CNS = system: SF-268 CNS
SF-295 CNS = system: SF-295 CNS
SF-539 CNS = system: SF-539 CNS
SK-MEL-2 melanoma = system: SK-MEL-2 melanoma
SK-MEL-28 melanoma = system: SK-MEL-28 melanoma
SK-MEL-5 melanoma = system: SK-MEL-5 melanoma
SK-OV-3 ovarian = system: SK-OV-3 ovarian
SN12C renal = system: SN12C renal
SNB-19 CNS = system: SNB-19 CNS
SNB-75 CNS = system: SNB-75 CNS
SW-620 colon = system: SW-620 colon
T-47D breast = system: T-47D breast
TK-10 renal = system: TK-10 renal
U251 CNS = system: U251 CNS
UACC-257 melanoma = system: UACC-257 melanoma
UO-31 renal = system: UO-31 renal
BT-549 breast = system: BT-549 breast
MDA-MB-435 = system: MDA-MB-435
UACC-62 melanoma = system: UACC-62 melanoma

SMILES: CC(=O)ONC(C(=O)C(C)(C)C)C(=O)C(C)(C)C
- TGI (786-0 renal): > 100 µM
- TGI (A498 renal): > 100 µM
- TGI (A549 NSCLC): > 100 µM
- TGI (ACHN renal): > 100 µM
- TGI (CAKI-1 renal): > 100 µM
- TGI (CCRF-CEM leukemia): > 100 µM
- TGI (COLO 205 colon): > 100 µM
- TGI (DU-145 prostate): > 100 µM
- TGI (EKVX NSCLC): > 100 µM
- TGI (HCC-2998 colon): > 100 µM
- TGI (HCT-116 colon): > 100 µM
- TGI (HCT-15 colon): > 100 µM
- TGI (HL-60(TB) leukemia): > 100 µM
- TGI (HOP-62 NSCLC): > 100 µM
- TGI (HOP-92 NSCLC): > 100 µM
- TGI (HS 578T breast): > 100 µM
- TGI (HT29 colon): > 100 µM
- TGI (IGROV1 ovarian): > 100 µM
- TGI (K-562 leukemia): > 100 µM
- TGI (KM12 colon): > 100 µM
- TGI (LOX IMVI melanoma): > 100 µM
- TGI (M14 melanoma): > 100 µM
- TGI (MALME-3M melanoma): > 100 µM
- TGI (MCF7 breast): > 100 µM
- TGI (MDA-MB-231 breast): > 100 µM
- TGI (MDA-N): > 100 µM
- TGI (MOLT-4 leukemia): > 100 µM
- TGI (NCI-H226 lung): > 100 µM
- TGI (NCI-H23 lung): > 100 µM
- TGI (NCI-H460 lung): > 100 µM
- TGI (NCI-H522 lung): > 100 µM
- TGI (NCI/ADR-RES ovarian): > 100 µM
- TGI (OVCAR-3 ovarian): > 100 µM
- TGI (OVCAR-4 ovarian): > 100 µM
- TGI (OVCAR-5 ovarian): > 100 µM
- TGI (OVCAR-8 ovarian): > 100 µM
- TGI (PC-3 prostate): > 100 µM
- TGI (RPMI-8226 leukemia): > 100 µM
- TGI (RXF 393 renal): > 100 µM
- TGI (SF-268 CNS): > 100 µM
- TGI (SF-295 CNS): > 100 µM
- TGI (SF-539 CNS): > 100 µM
- TGI (SK-MEL-2 melanoma): > 100 µM
- TGI (SK-MEL-28 melanoma): > 100 µM
- TGI (SK-MEL-5 melanoma): > 100 µM
- TGI (SK-OV-3 ovarian): > 100 µM
- TGI (SN12C renal): > 100 µM
- TGI (SNB-19 CNS): > 100 µM
- TGI (SNB-75 CNS): > 100 µM
- TGI (SW-620 colon): > 100 µM
- TGI (T-47D breast): > 100 µM
- TGI (TK-10 renal): > 100 µM
- TGI (U251 CNS): > 100 µM
- TGI (UACC-257 melanoma): > 100 µM
- TGI (UO-31 renal): > 100 µM

SMILES: C[C@@H]1Nc2cc(NC(=O)OCCF)nc(N)c2N=C1c1ccccc1
- GI50 (A498 renal): < 0.0001 µM
- TGI (A549 NSCLC): 46.6 µM
- GI50 (ACHN renal): < 0.0001 µM
- TGI (ACHN renal): > 100 µM
- TGI (BT-549 breast): > 100 µM
- GI50 (CAKI-1 renal): < 0.0001 µM
- TGI (COLO 205 colon): < 0.0001 µM
- TGI (HCT-116 colon): > 100 µM
- TGI (HCT-15 colon): > 100 µM
- TGI (HL-60(TB) leukemia): < 0.0001 µM
- TGI (HOP-92 NSCLC): > 100 µM
- TGI (IGROV1 ovarian): < 0.0001 µM
- TGI (K-562 leukemia): < 0.0001 µM
- TGI (MALME-3M melanoma): 49 µM
- GI50 (MCF7 breast): < 0.0001 µM
- TGI (MCF7 breast): > 100 µM
- TGI (MDA-MB-435): < 0.0001 µM
- TGI (MDA-N): < 0.0001 µM
- TGI (MOLT-4 leukemia): < 0.0001 µM
- GI50 (NCI-H226 lung): < 0.0001 µM
- TGI (NCI-H23 lung): > 100 µM
- TGI (NCI-H522 lung): 0.509 µM
- TGI (NCI/ADR-RES ovarian): < 0.0001 µM
- TGI (OVCAR-3 ovarian): < 0.0001 µM
- GI50 (OVCAR-4 ovarian): > 100 µM
- TGI (OVCAR-4 ovarian): > 100 µM
- TGI (OVCAR-5 ovarian): > 100 µM
- TGI (OVCAR-8 ovarian): 30 µM
- TGI (PC-3 prostate): > 100 µM
- TGI (RPMI-8226 leukemia): < 0.0001 µM
- TGI (RXF 393 renal): > 100 µM
- TGI (SF-295 CNS): 20.1 µM
- TGI (SF-539 CNS): < 0.0001 µM
- TGI (SK-MEL-28 melanoma): > 100 µM
- TGI (SK-MEL-5 melanoma): < 0.0001 µM
- TGI (SN12C renal): > 100 µM
- GI50 (SNB-19 CNS): < 0.0001 µM
- TGI (SNB-75 CNS): > 100 µM
- TGI (SW-620 colon): > 100 µM
- TGI (T-47D breast): > 100 µM
- TGI (U251 CNS): 12.2 µM
- TGI (UACC-257 melanoma): > 100 µM
- TGI (UACC-62 melanoma): > 100 µM
- TGI (UO-31 renal): 89.1 µM
